Reference: PMC12621019, “Restructuring Antiviral Quinazolinone Frameworks to Derive and Optimize Inhibitors of Chikungunya Virus” (ACS Medicinal Chemistry Letters, 2025)

Columns and labels:
[1] = Cytotoxicity assay (CellTiter Glo) in NHDF cells; details: human, CC50, NHDF cells, maximum 40 μM
[2] = tested on: CHIKV (strain 181/25mKate); assay: microbe, parasite or virus in culture; assay type: cell-based; details: Chikungunya virus, NHDF, 72 h, read-out: titer redn, log

| Structure (SMILES) | CC50 at 72 h [1] | log reduction at 10 µM [2] |
| --- | --- | --- |
| CC(C)N1CCN(c2cc3nc([C@@H]4CCCNC4)n(-c4ccccc4)c(=O)c3cc2Cl)CC1 [(R)-1s] | > 40 µM | 0.9 |
| CC(C)N1CCN(c2cc3nc([C@H]4CCCNC4)n(-c4cccc(Cl)c4)c(=O)c3cc2Cl)CC1 [(S)-1w] | 14.8 µM | 2.6 |
| COc1c(F)cc(-n2c([C@@H]3CCCN(C)C3)nc3cc(N4CCN(C(C)C)CC4)c(Cl)cc3c2=O)cc1F [(R)-1y] | 23.6 µM | 1.3 |
| COc1c(F)cc(-n2c([C@H]3CCCNC3)nc3cc(N4CCC(N5CCN(C)CC5)CC4)c(Cl)cc3c2=O)cc1F [(S)-1p] | 12.1 µM | 1.8 |
| COc1c(F)cc(-n2c([C@H]3CCCN3)nc3cc(N4CCN(C(C)C)CC4)c(F)cc3c2=O)cc1F [(R)-1b] | > 40 µM | 1.3 |
| CC(C)N1CCN(c2cc3nc([C@H]4CCCCN4)n(-c4ccc(Cl)cc4)c(=O)c3cc2Cl)CC1 [(R)-1x] | 12 µM | 5.2 |
| COc1c(F)cc(-n2c(-c3ccccn3)nc3cc(N4CCN(C(C)C)CC4)c(Cl)cc3c2=O)cc1F [1ac] | > 40 µM | 0 |
| CC(C)N1CCN(c2cc3nc([C@@H]4CCCCN4)n(-c4ccc(Cl)cc4)c(=O)c3cc2Cl)CC1 [(S)-1x] | 16.5 µM | 3.4 |
| COc1c(F)cc(-n2c([C@@H]3CCCNC3)nc3cc(N4CCN(C(C)C)CC4)c(Cl)cc3c2=O)cc1F [(R)-1g] | 16.2 µM | 2.3 |
| COc1ccc(-n2c([C@@H]3CCCNC3)nc3cc(N4CCN(C(C)C)CC4)c(Cl)cc3c2=O)cc1 [(R)-1t] | 29.3 µM | 1.4 |
| COc1c(F)cc(-n2c([C@H]3CCCN(C)C3)nc3cc(N4CCN(C(C)C)CC4)c(Cl)cc3c2=O)cc1F [(S)-1y] | 29.1 µM | 1.1 |
| COc1c(F)cc(-n2c([C@@H]3CCCNC3)nc3cc(N4CCN(C)CC4)c(Cl)cc3c2=O)cc1F [(R)-1m] | 23.3 µM | 2.2 |
| COc1c(F)cc(-n2c([C@@H]3CCCNC3)nc3cc(N4CCC(N5CCN(C)CC5)CC4)c(Cl)cc3c2=O)cc1F [(R)-1p] | 13.1 µM | 2.5 |
| COc1c(F)cc(-n2c([C@H]3CCCN3)nc3cc(N4CCN(C(C)C)CC4)c(Cl)cc3c2=O)cc1F [(R)-1d] | 19 µM | 2.3 |
| COc1c(F)cc(-n2c([C@@H]3CCCNC3)nc3cc(N4CCN(C5CCN(C)CC5)CC4)c(Cl)cc3c2=O)cc1F [(R)-1l] | 11.6 µM | 2.8 |
| CC(C)N1CCN(c2cc3nc([C@H]4CCCNC4)n(-c4ccc(Cl)cc4)c(=O)c3cc2Cl)CC1 [(S)-1v] | 17.2 µM | 2 |
| COc1c(F)cc(-n2c(C3CCNCC3)nc3cc(N4CCN(C(C)C)CC4)c(Cl)cc3c2=O)cc1F [1i] | 29.1 µM | 0.95 |
| CC(C)N1CCN(c2cc3nc([C@@H]4CCCNC4)n(-c4ccc(Cl)cc4)c(=O)c3cc2Cl)CC1 [(R)-1v] | 14.2 µM | 3.4 |
| COc1c(F)cc(-n2c([C@@H]3CCCN3)nc3cc(N4CCNCC4)c(Cl)cc3c2=O)cc1F [(S)-1e] | 22.8 µM | 1.6 |
| COc1c(F)cc(-n2c([C@H]3CCCN3)nc3cc(N4CCN(C)CC4)c(F)cc3c2=O)cc1F [(R)-1a] | > 40 µM | 0.1 |
| COc1c(F)cc(-n2c([C@H]3CCCNC3)nc3cc(N(C)CCN(C)C)c(Cl)cc3c2=O)cc1F [(S)-1q] | 16.3 µM | 1.2 |

| Structure (SMILES) | CC50 at 72 h [1] | log reduction at 10 µM [2] |
| --- | --- | --- |
| COc1c(F)cc(-n2c([C@H]3CCCNC3)nc3cc(N4CCN(C(C)C)CC4)c(Cl)cc3c2=O)cc1F [(S)-1g] | 11.7 µM | 2.9 |
| COc1c(F)cc(-n2c([C@@H]3CCN3)nc3cc(N4CCN(C(C)C)CC4)c(Cl)cc3c2=O)cc1F [(S)-1f] | > 40 µM | 0 |
| COc1c(F)cc(-n2c([C@H]3CCCNC3)nc3cc(N4CCNCC4)c(Cl)cc3c2=O)cc1F [(S)-1n] | 13.7 µM | 0.8 |
| COc1c(F)cc(-n2c([C@H]3CCCNC3)nc3cc(N4CCN(C)CC4)c(Cl)cc3c2=O)cc1F [(S)-1m] | 24.8 µM | 1 |
| COc1c(F)cc(-n2c([C@@H]3CCCNC3)nc3cc(N4CCNCC4)c(Cl)cc3c2=O)cc1F [(R)-1n] | 16.5 µM | 0.7 |
| COc1c(F)cc(-n2c([C@H]3CCCNC3)nc3cc(N4CCN(C(C)(C)C)CC4)c(Cl)cc3c2=O)cc1F [(S)-1j] | 8.9 µM | ~3 |
| CC(C)N1CCN(c2cc3nc([C@H]4CCCNC4)n(-c4ccccc4)c(=O)c3cc2Cl)CC1 [(S)-1s] | > 40 µM | 1 |
| COc1c(F)cc(-n2c([C@@H]3CCCNC3)nc3cc(N4CCN(c5ccccc5)CC4)c(Cl)cc3c2=O)cc1F [(R)-1k] | 11.3 µM | > 4 |
| COc1c(F)cc(-n2c([C@@H]3CCCNC3)nc3cc(N(C)CCN(C)C)c(Cl)cc3c2=O)cc1F [(R)-1q] | 26.6 µM | 0.6 |
| COc1c(F)cc(-n2c([C@@H]3CCCNC3)nc3cc(N4CCC(N5CCOCC5)CC4)c(Cl)cc3c2=O)cc1F [(R)-1o] | 20.6 µM | 1.1 |
| COc1ccc(-n2c([C@H]3CCCN3)nc3c(C)cc([N+](=O)[O-])cc3c2=O)cc1 [BDGR-49, reference compound] |  | 0 |
| COc1c(F)cc(-n2c([C@@H]3CCCN(c4ccccc4)C3)nc3cc(N4CCN(C(C)C)CC4)c(Cl)cc3c2=O)cc1F [(R)-1aa] | > 40 µM | 0 |
| COc1c(F)cc(-n2c([C@H]3CCCNC3)nc3cc(N4CCN(C5CCN(C)CC5)CC4)c(Cl)cc3c2=O)cc1F [(S)-1l] | 11.4 µM | 1.2 |
| CC(C)N1CCN(c2cc3nc([C@@H]4CCCNC4)n(-c4cccc(Cl)c4)c(=O)c3cc2Cl)CC1 [(R)-1w] | 18 µM | 2.7 |
| COc1c(F)cc(-n2c([C@@H]3CCCCN3C)nc3cc(N4CCN(C(C)C)CC4)c(Cl)cc3c2=O)cc1F [(S)-1z] | 36.5 µM | 0.5 |
| COc1c(F)cc(-n2c([C@H]3CCN3)nc3cc(N4CCN(C(C)C)CC4)c(Cl)cc3c2=O)cc1F [(R)-1f] | > 40 µM | 0.1 |
| COc1c(F)cc(-n2c([C@@H]3CCCNC3)nc3cc(N4CCN(C(C)(C)C)CC4)c(Cl)cc3c2=O)cc1F [(R)-1j] | 17.1 µM | 1.1 |
| CC(C)N1CCN(c2cc3nc([C@@H]4CCCNC4)n(-c4ccc(F)cc4)c(=O)c3cc2Cl)CC1 [(R)-1u] | 23.8 µM | 2.1 |
| COc1c(F)cc(-n2c([C@@H]3CCCN3)nc3cc(N4CCN(C(C)C)CC4)c(Cl)cc3c2=O)cc1F [(S)-1d] | > 40 µM | 1.3 |
| COc1c(F)cc(-n2c([C@H]3CCCN3)nc3cc(N4CCNCC4)c(Cl)cc3c2=O)cc1F [(R)-1e] | 24.9 µM | 2.1 |
| CC(C)N1CCN(c2cc3nc([C@H]4CCCNC4)n(C)c(=O)c3cc2Cl)CC1 [(S)-1r] | > 40 µM | 0.7 |
